Data from PubChem BioAssay AID588714 (Southern Research Specialized Biocontainment Screening …, 2011).
Results filed as inconclusive are left out. Calls of active or inactive are those of the source.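 Rule for the calls: active = viability below 80% at one or more tested concentrations, meaning the compound is toxic to the cells; inconclusive = replicate runs disagree on whether viability fell below 80%; inactive = viability of 80% or more at every dose.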

Key:
[1] = viability reduction of Vero E6 cells – cell-based, M18 aspartyl aminopeptidase campaign, cytotoxicity control for P. falciparum PFM18AAP inhibitor project, dose response (AID 588714); settings: Vero E6 viability, CellTiter-Glo luminescence, 72 h
[2] = system: Vero E6 viability, CellTiter-Glo luminescence, 72 h; assay: as above

| Compound | viability ([1]; at 50 µM (top of the series)) | CC50 [2] | further results |
| --- | --- | --- | --- |
| Nc1cc(C(=O)c2ccccc2)ccc1O | 104% (inactive) |  |  |
| O=c1cc(CN2CCN(Cc3ccccc3)CC2)c2ccc(O)c(O)c2o1 |  | 15.9 µM |  |
| O=C(c1ccco1)N1CCN(Cc2cc(=O)c(O)c[nH]2)CC1 | 100% (inactive) |  |  |
| CCOc1cccc(-c2nc(-c3ccc(O)c(O)c3)cs2)c1 |  | 21.2 µM |  |
| COc1ccc(CCNc2ccncc2)cc1OC | 87.5% (inactive) |  |  |
| O=c1cc(CO)oc(CN2CCCCC2)c1O | 99.7% (inactive) |  |  |
| COc1ccc(CCNc2c3ccccc3nc3ccccc23)cc1 |  | 14.9 µM |  |
| COc1ccc(CNc2c3ccccc3nc3ccccc23)cc1OC |  | 5.37 µM |  |
| CCC(C)C(=O)Nc1ccccc1O (stereo not given) | 99.8% (inactive) |  |  |
| O=C(c1ccco1)N1CCN(Cc2cc(=O)c(O)co2)CC1 | 92.2% (inactive) |  |  |
| COc1ccc(CCNC2CCN(C)CC2)cc1OC | 97.5% (inactive) |  |  |
| Cc1c(-c2ccccc2)[nH]c(-c2ccc(O)c(O)c2)[n+]1O | 97.2% (inactive) |  |  |
| NCc1cc2c3c(c(=O)oc2c(O)c1O)CCC3 |  | 29.2 µM |  |
| COc1ccc(CC(=O)O)cc1OC | 108% (inactive) |  |  |
| Oc1ccc(CCNc2c3ccccc3nc3ccccc23)cc1 |  | 7.34 µM |  |
| Oc1ccc(CNc2c3ccccc3nc3ccccc23)cc1O |  | 7.78 µM |  |
| Oc1ccc(CCN2CCc3ccccc3C2)cc1O | 85.7% (inactive) |  |  |
| COc1ccc(CCNc2c3ccccc3nc3ccccc23)cc1OC |  | 12.6 µM |  |
| O=C(O)CCCNc1c2ccccc2nc2ccccc12 |  |  | viability ([1]; at 25 µM (top of the series)): 103% (inactive) |
| CC(C)(C)C(=O)OCc1nc(-c2ccc(O)c(O)c2)cs1 |  | 31.6 µM |  |
| Oc1ccc(CCNc2ccc3ccccc3c2)cc1O |  | 28.3 µM |  |
| COc1cccc(CCNc2c3ccccc3nc3ccccc23)c1 |  | 8.75 µM |  |
| CN(CCc1ccc(O)c(O)c1)c1ccncc1 | 99.3% (inactive) |  |  |

| Compound | viability ([1]; at 50 µM (top of the series)) | CC50 [2] | further results |
| --- | --- | --- | --- |
| Oc1ccc(CCNc2c3c(nc4ccccc24)CCCC3)cc1O | 92.2% (inactive) |  |  |
| Oc1ccc(CCNc2cccc3ccccc23)cc1O |  | 16.5 µM |  |
| Cc1ccc(-c2nc(-c3ccc(O)c(O)c3)cs2)cc1 |  | 24.5 µM |  |
| Oc1ccc(CCNc2cncc3ccccc23)cc1O |  | 37.7 µM |  |
| CCC(C)C(=O)Nc1ccccc1N (stereo not given) | 105% (inactive) |  |  |
| COc1ccc(CCCNc2c3ccccc3nc3ccccc23)cc1OC |  | 21.8 µM |  |
| COc1ccc(CCC(=O)O)cc1OC | 94.6% (inactive) |  |  |
| Cc1c(O)c(=O)ccn1CCNc1c2ccccc2nc2ccccc12 | 89.4% (inactive) |  |  |
| O=C(O)CCCCNc1c2ccccc2nc2ccccc12 |  |  | viability ([1]; at 25 µM (top of the series)): 96.8% (inactive) |
| COc1ccc(CCN2CCN(C)CC2)cc1OC | 98% (inactive) |  |  |
| NCCNc1c2ccccc2nc2ccccc12 |  | 45.3 µM |  |
| O=C1OCCN1CCc1nc(-c2ccc(O)c(O)c2)cs1 | 92.6% (inactive) |  |  |
| O=c1ccc2cc(O)c(O)cc2o1 |  | 38.2 µM |  |
| COc1ccc(CCN2CCc3ccccc3C2)cc1OC | 86.9% (inactive) |  |  |
| COc1ccc(CCN(C)c2c3ccccc3nc3ccccc23)cc1OC |  | 15.9 µM |  |
| O=S1(=O)c2ccccc2-c2cc(-c3nc(-c4ccc(O)c(O)c4)[nH]c3-c3ccccc3)ccc21 |  | 19.4 µM |  |
| CCC(C)c1ccc(N)c(O)c1 (stereo not given) | 103% (inactive) |  |  |
| Cc1nc(NCCc2ccc(O)c(O)c2)c2c3c(sc2n1)CCC3 |  | 43.7 µM |  |
| Oc1ccc(-c2csc(Cc3cc4ccccc4[nH]3)n2)cc1O |  | 15.5 µM |  |
| COc1ccc(CCN(C)c2ccncc2)cc1OC | 83.9% (inactive) |  |  |
| O=C1c2ccc3c4c(ccc(c24)C(=O)N1O)CC3 |  | 9.17 µM |  |
| Oc1ccc(CCNC(c2ccccc2)c2ccccc2)cc1O |  | 36.3 µM |  |
